Literature values in patent US11446297B2, “Methods for treating hemolytic diseases and sickle cell disease” (Purdue Research, priority 2015, dated 2022).

Biological target: Syk (Homo sapiens, UniProt P43405)
Conditions: first IC column; kinase assay; Inactive@ 80 μM (r14)

SMILES: COc1ccc2c(c1)c(/C=C1\C(=O)Nc3ccc(S(=O)(=O)N(C)C)cc31)cn2C [Compd 6]
- IC@ (result in words): Inactive@
